Reference: patent US11033624B2, “Medical item for prevention and treatment of ear infection” (Novaflux Inc., priority 2010, dated 2021)

Test: Thermogravimetric analysis weight loss
Assay type: physicochemical
Conditions: 250° C., pure state, heating rate 10° C./min
Description: An anti-biotic agent was selected consisting of ciprofloxacin betaine crystalline powder (C.A.S. Registry No. 85721-33-1). Ciprofloxacin is a broad spectrum antimicrobial agent having less than 1 percent weight loss at a temperature of 250° C. when measured in a pure state by thermogravimetric analysis at a heating rate of 10° C./min. The ciprofloxacin melted over a temperature range of 252° C. to 271° C.

Compound: O=C(O)c1cn(C2CC2)c2cc(N3CCNCC3)c(F)cc2c1=O [Ciprofloxacin, ciprofloxacin betaine]
- weight loss by thermogravimetric analysis: less than 1%
